Laboratory results as given in patent publication US20060063930A1, “Compositions and methods comprising proteinase activated receptor antagonists” (priority 2004, published 2006).
Structures can show the parent of a compound that is named as a salt. Where no end group is shown, it is not given here. [ ]: non-standard residue; d: D form. Sta = CC(C)C[C@H](N)[C@@H](O)CC(=O)O; Hyp = O=C(O)[C@@H]1C[C@@H](O)CN1; Nip = nipecotic acid residue; Orn = NCCC[C@H](N)C(=O)O

tested on: PAR-2; test: Inhibition of PAR-2 activating peptide (AP2) calcium signaling in cells pretreated with antagonist; format: cell-based, human; parameters: key to PAR-2 AP2 Signaling Treated/Control (T/C) / PAR-2 AP2 Signaling Treated/Control: AUC of calcium mobilization, treated ÷ control wells; settings: mimetic antagonists; AUC of calcium mobilization treated/control; initially screened at 1 mM compound
Description: In order to assess the potential of peptides and molecules selected above to block PAR-2 signaling, cells were pretreated with potential antagonist peptides for a predetermined amount of time and were subsequently treated with various GPCR agonists. Confluent Lewis lung carcinoma (LLC) cells were loaded for 30-60 minutes with the fluorescent dye Fluo-4. Final concentration 4 uM Fluo-4, 0.02% pluronic acid in physiological buffer. Cells were then washed with assay buffer, (HBSS containing 1 mM CaCl2, 1 mM MgSO4, and 2.5 mM probenecid). Cells were stimulated with various doses of PAR-2 activating peptide, PAR-1 activating peptide or ATP. Fluorescence was monitored using a Wallac 1470 fluorescent plate reader. (See Al-ani et. al Journal of Pharmacology and Experimental Therapeutics 290:2, 753-760). Additional compound screening was performed using U87-MG human glioma cells. In this assay cells were labeled with FLIPR Calcium 3 dye (Component A), which was dissolved in 10 mls of Assay Buffer without Probenecid. Loading buffer was prepared by diluting Component A with an additional 90 mls of Assay Buffer without Probenecid, giving a total volume of a 100 ml. For plate loading, 11 mls of FLIPR Calcium 3 dye (Component A) is placed into a 15 ml conical tube+110 μl of 250 mM Probenecid, at a final in-well working volume of 2.5 mM. Finally, 50 μl of Calcium 3 dye was added wells containing 100 μl media, and incubated 1 hr, 37° C., 5% CO2. Calcium signaling was then measured using a Flexstation II (Molecular Devices) following manufacturer's instructions.
Potential antagonist compounds were initially screened at 1 mM compound concentration. Those compounds with activity were then subjected to additional confirmatory testing. Activity is reported as treated/controlled (T/C) where the area under the curve (AUC) of calcium mobilization plots in treated wells is divided by the AUC of calcium mobilization plots in control wells to generate a measure of inhibition.

Molecule | PAR-2 AP2 Signaling Treated/Control
Cl.O=C(CC1CCCCC1)N1CCN(C(=O)C2CCNCC2)CC1 [ENMD-1770, N^1-2-cyclohexylethanoyl-N-4-piperidine-4-carbonyl-piperazine hydrochloride] | 0.91
NCCCCCNC(=O)c1ccc(C(=O)NCC2CCCCC2)cc1 [ENMD-1766, N^1-(5-aminopentyl)-N-4-(cyclohexylmethyl)-terephthalamide] | 0.73
NCCCCCNC(=O)Cc1csc(NC(=O)CC2CCCCC2)n1 [ENMD-1559, N-(5-amino-pentyl)-2-[2-(2-cyclohexyl-acetyl-amino)-thiazol-4-yl]-acetamide] | 0.52
CCCCC(=O)N1CCN(C(=O)CCCCCN)CC1 [ENMD-1040, N^1-pentanoyl-N-4-[6′-aminohexanoyl]-piperazine] | 1.04
CC(C)CC(=O)Nc1ccc(NC(=O)CCCCCN)cc1 [ENMD-1391, N-(4-(3-methylbutanamido)phenyl)-6-aminohexanamide] | 0.01
CC(C)COc1ccc(C(=O)NCCCN)cc1 [ENMD-1408, N-(3-aminopropyl)-4-isobutoxy-benzamide] | 0.35
NCCCCCCn1c(=O)n(CCC2CCCCC2)c2ccccc21 [ENMD-1518, 1-(6-aminohexyl)-3-[(2-cyclohexyl)ethyl]benzimidazol-(2)-one] | 0.58
CC(C)CNC(=O)[C@H]1CC[C@@H](NC(=O)CCCCCN)C1 [ENMD-1536, N-isobutyl-3S-(6-aminohexanamido)-cyclopentane-1R-carboxamide] | 0.42
Nc1ccc(CC(=O)N2CC3CN(C(=O)CC4CCCCC4)CC3C2)cc1 (stereo not shown) [ENMD-1777, 1-(2-(2-(4-aminophenyl)acetyl-hexahydro-pyrrolo[3,4-c]pyrrol-5-(1H)-yl)-2-cyclohexyl)ethan-1-one] | 0.64
CC(C)CNC(=O)c1ccc(-c2ccc(NC(=O)CCCCCN)cc2)cc1 [ENMD-1527, 4′-(6-amino-hexanoylamino)-biphenyl-4-carboxylic acid isobutyl-amide] | 0.64
CC(C)CNc1ccc(C(=O)NCCCCN)cn1 [ENMD-1541] | 0.65
CC(C)CNC(=O)c1cc(CNC(=O)CCCCN)on1 [ENMD-1555, 5-[(5-amino-pentanoylamino)-methyl]-isoxazole-3-carboxylic acid isobutyl-amide] | 0.86
Cl.O=C(CC1CCCCC1)N1CCN(C(=O)C2CCCNC2)CC1 (stereo not shown) [ENMD-1773, N1-2-cyclohexylethanoyl-N-4-piperidine-3-carbonyl-piperazine hydrochloride] | 0.85
NCCCCCCn1cccc1C(=O)NCC1CCCCC1 [ENMD-1570] | 0.05
Cl.O=C(CC1CCCCC1)Nc1ccc(NC(=O)C2CCNCC2)cc1 [ENMD-1772, N-(4-(2-cyclohexylacetamido)phenyl) piperidine-4-carboxamide hydrochloride] | 0.73
O=C(NCCC1CCNCC1)c1cnc(NCC2CCCCC2)cn1 [ENMD-1572, 4-(piperidinethyl)-6-cyclohexanemethylamino-2-pyrazine amide] | 0.10
CC(C)CCN1C(C(=O)NCCCCCCN)CCS1(=O)=O (stereo not shown) [ENMD-1539, N-(isoamyl)isothiasolidine-1,1-dioxide-3-carboxylic acid-6-aminohexylamide] | 0.25
CC(C)Nc1ccc(CCn2c(=O)n(CCC3CCCCC3)c3ccccc32)cc1 [ENMD-1564, 1-[4-(isopropylamine)-phenethyl]-3-(2-cyclo-hexylethyl)-1H-benzo[d]imidazole-2(3H)-one] | 1.16

Molecule | PAR-2 AP2 Signaling Treated/Control
NCCCCCCN1C(C(=O)NCCC2CCCCC2)CCS1(=O)=O (stereo not shown) [ENMD-1545, N-(6-aminohexyl)isothiazolidine-1,1-dioxide-3-carboxylic acid (2-cyclohexyl)ethylamide] | 0.35
CC[C@@H](C)C(=O)N1CCN(C(=O)CCCCCN)CC1 [ENMD-1034, N^1-[R-2-methylbutanoyl]-N^4-[6′-aminohexanoyl]-piperazine] | 0.39
NCCCCCC(=O)N1CCOC(C(=O)NCC2CCCCC2)C1 (stereo not shown) [ENMD-1523, 4-(6-Amino-hexanoyl)-morpholine-2-carboxylic acid cyclohexylmethyl-amide] | 0.54
NCCCCNC(=O)c1cnc(NCC2CCCCC2)cn1 [ENMD-1571, 4-aminobutyl-6-cyclohexanemethylamino-2-pyrazine amide] | 0.81
CC(C)CC(=O)N1CC2CN(C(=O)Cc3ccc(N)cc3)CC2C1 (stereo not shown) [ENMD-1763] | 0.83
N=C(N)NCCCCCC(=O)N1CCN(C(=O)Cc2ccccc2)CC1 [ENMD-1077, 4-phenylacetoyl-piperazin-1-(5′-carbamoyl-pentylguanidine)] | 0.80
Nc1ccc(CC(=O)N2CCN(C(=O)Cc3ccccc3)CC2)cc1 [ENMD-1075, N^1-2-phenylethanoyl-N^4-[2-(4-aminophenyl)-ethanoyl]-piperazine] | 0.71
NCCCCCCNC(=O)c1cccn1CC1CCCCC1 [ENMD-1540, N-(6-aminohexyl)-1-(2-cyclohexylmethyl)-2-pyrrolecarboxamide] | 0.05
Nc1ccc(CCn2c(=O)n(CCC3CCCCC3)c3ccccc32)cc1 [ENMD-1574, 1-(4-aminophenethyl)-3-(2-cyclohexylethyl)-1H-benzo[d]imidazole-2(3H)-one] | 0.01
Br.CC(C)CC(=O)NCCNC(=O)CCCCCN [ENMD-1393, N-(2-(3-methylbutanamido)ethyl)-6-aminohexan-amide hydrobromide] | 0.81
Cl.N[C@H]1CC[C@H](C(=O)N2CCN(C(=O)CC3CCCCC3)CC2)C1 [ENMD-1779, N1-2-cyclohexylethanoyl-N-4-(1R,3R)-1-amino-cyclopentane-3-carbonyl piperazine hydrochloride] | 0.89
NCCCNC(=O)c1ccc(OCC2CCCCC2)cc1 [ENMD-1409, N-(3-aminopropyl)-4-(cyclohexylmethoxy)-benzamide] | 0.45
CCC(C)C(=O)N1CCN(C(=O)CCCCCN)CC1 (stereo not shown) [ENMD-1033, N′-[S-2-methylbutanoyl]-N^4-[6′-aminohexanoyl]-piperazine] | 0.28
CC(C)COc1ccc(C(=O)NCCCCN)cc1 [ENMD-1405, N-(4-aminobutyl)-4-isobutoxy-benzamide] | 0.13
CC(C)CC(=O)N1CC(NC(=O)CCCCCN)C1 [ENMD-1515, N-[1-(3-methylbutanoyl)azetidin-3-yl]-6-aminohexanamide] | 0.65
NCCCCCC(=O)N1CC2CN(C(=O)CC3CCCCC3)CC2C1 (stereo not shown) [ENMD-1776] | 0.82
CC(C)CC(=O)NCCNC(=O)Cc1ccc(N)cc1.Cl [ENMD-1416, N-(2-(2-(4-aminophenyl)acetamido)ethyl)-3-methylbutan-amide hydrochloride] | 0.48

same assay, conditions: mimetic antagonists; AUC of calcium mobilization treated/control; initially screened at 1 mM compound; hydrochloride

Molecule | PAR-2 AP2 Signaling Treated/Control
CC(C)CC(=O)Nc1nc(CC(=O)NCCCCCN)cs1 [ENMD-1561, N-{4-[(5-Amino-pentylcarbamoyl)-methyl]-thiazol-2-yl}-3-methyl-butyramide hydrochloride] | 0.89

same assay, conditions: peptides; AUC of calcium mobilization treated/control; initially screened at 1 mM compound

Molecule | PAR-2 AP2 Signaling Treated/Control (T/C)
IGK-amide (Ile-Gly-Lys-NH2) [ENMD-1021] | 0.67
L-NiP-K (Leu-[Nip]-Lys) [ENMD-1058] | 1.58
LIPK [ENMD-1052] | 0.89
L-Sta-GK (L[Sta]GK) [ENMD-1057] | 1.40
IG-Orn (Ile-Gly-[Orn]) [ENMD-1029] | 0.42
L-HyP-K (Leu-[Hyp]-Lys) [ENMD-1060] | 1.29
dL-dI-dG-dK [ENMD-1032] | 0.44
L-HyP-GK (L[Hyp]GK) [ENMD-1061] | 1.16
LIGS [ENMD-1049] | 0.64
LIG-dK (LIG[dK]) [ENMD-1384] | 0.16
